# Laboratory results taken from patent publication US20250177352A1, “COMBINATION TREATMENT FOR CANCER” (LAEKNA LIMITED, priority 2022, published 2025).
# What was measured:
# solid tumors = conditions: literature values of approved antibodies; cited from earlier work
# Akt (protein kinase B) = conditions: reversible, ATP-competitive; stated as known; cited from earlier work
# MBT-2 cells = assay: Proliferation assay of mouse cancer cell lines (CellTiter-Lumi, ATP); assay type: cell-based; conditions: afuresertib 0.0001-10 μM, 3 days, FIG. 1
# Procedure: The cell lines were obtained from Cobioer Biosciences Co. Ltd., Nanjing, China. 1,000 to 2,000 cells were seeded into 96-well plate, and induced with various concentrations of afuresertib (0.0001-10 μM) for 3 days at 37° C. with 5% CO2. The number of viable cells in culture was determined based on quantitation of the amount of ATP following the manufacturer's instructions (CellTiter-Lumi Kit, Beyotime).
# mTNBC = conditions: historical control for mTNBC patients with PD-L1 negative status; cited from earlier work
Molecule,"ORR, Phase I studies in solid tumors (solid tumors) [%]",further results
Avelumab: anti-PD-L1 antibody (Merck Serono and Pfizer),9,
Pembrolizumab: listed among other approved anti-PD-L1 antibodies from Phase I studies,5.3,
"Cn1ncc(Cl)c1-c1cc(C(=O)N[C@H](CN)Cc2cccc(F)c2)sc1Cl [Afuresertib, N-{(1S)-2-amino-1-[(3-fluorophenyl)methyl]ethyl}-5-chloro-4-(4-chloro-1-methyl-1H-pyrazol-5-yl)-2-thiophenecarboxamide]",,pan-AKT kinase inhibitor potency (Akt (protein kinase B)): low-nanomolar; response of cell proliferation (cell viability) (MBT-2 cells): favorable response profile
"CC(=O)O[C@H]1C(=O)[C@@]2(C)[C@H]([C@H](OC(=O)c3ccccc3)[C@]3(O)C[C@H](OC(=O)[C@H](O)[C@@H](NC(=O)c4ccccc4)c4ccccc4)C(C)=C1C3(C)C)[C@]1(OC(C)=O)CO[C@@H]1C[C@@H]2O [paclitaxel, [(1S,2S,3R,4S,7R,9S,10S,12R,15S)-4,12-diacetyloxy-15-[(2R,3S)-3-benzamido-2-hydroxy-3-phenylpropanoyl]oxy-1,9-dihydroxy-10,14,17,17-tetramethyl-11-oxo-6-oxatetracyclo[11.3.1.0^3,10.0^4-7]heptadec-13-en-2-yl]benzoate]",,"ORR, paclitaxel monotherapy, LOTUS Study (mTNBC): 32%"
Atezolizumab: anti-PD-L1 antibody (Genentech/Roche),10,
